In publication PMC3944410 (Anesthesiology, 2014):
Where “and” joins values, the source holds several entries; their conditions need not be identical. Identical values can stand only once.

Assays:
[1] = biological target: recombinant human kappa opioid receptor (Homo sapiens, UniProt P41145); assay: biochemical; details: IC50 of inhibition of agonist-induced G protein activation
[2] = 10 mg of dezocine, postoperative patients (n=187); cited from earlier work
[3] = cited from earlier work

Sequence of recombinant human kappa opioid receptor (P41145 whole entry): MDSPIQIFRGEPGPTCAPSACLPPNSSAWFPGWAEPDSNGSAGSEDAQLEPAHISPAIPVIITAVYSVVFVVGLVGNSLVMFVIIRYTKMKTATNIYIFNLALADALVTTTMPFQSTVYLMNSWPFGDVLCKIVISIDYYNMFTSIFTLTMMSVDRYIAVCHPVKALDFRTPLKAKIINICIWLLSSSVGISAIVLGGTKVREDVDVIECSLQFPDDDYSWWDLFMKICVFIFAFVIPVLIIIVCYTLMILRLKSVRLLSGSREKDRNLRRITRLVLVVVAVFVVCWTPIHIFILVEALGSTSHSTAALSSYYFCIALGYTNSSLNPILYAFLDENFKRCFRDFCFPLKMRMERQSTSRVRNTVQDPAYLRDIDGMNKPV

SMILES: C[C@@]12CCCCC[C@@H](Cc3ccc(O)cc31)[C@@H]2N [dezocine]
- IC50 [1]: ~0.35 µM and ~0.8 µM
- analgesic activity compared with meperidine [2]: same analgesic activity as 50 mg of meperidine
- decrease of anesthetic requirement [3]: up to 50%
